Measurements: patent US20150258127A1, “METHODS FOR PREVENTING ANTIPHOSPHOLIPID SYNDROME (APS)” (INSERM (INSTITUT NATIONAL DE LA SANTÉ ET DE LA RECHERCHE …, priority 2012, published 2015)
Where two headings read alike, the source gives them in different places. Each block holds one molecule with its values, some of them ahead of it.

Legend:
[1] = test system: P-AKT (Ser^473) (mTORC2) in human micro vascular endothelial cells (HMEC); test: Western blot of P-AKT (Ser473) (mTORC2) in HMEC exposed to APA IgG; type: cell-based; conditions: HMEC pretreated one hour with inhibitor (PP242 0.5 μM; LY294002 20 μM), then APA IgG 5 minutes
Description: (§1) All experiments were performed in duplicates.
(§2) Western blots were performed as previously described^28. […] Images were acquired using Fusion FX7 system (Vilber Loumart) and analysed using Bio-1D software (Vilber Loumart).

[2] = test system: P-S6RP (mTORC1) in human micro vascular endothelial cells (HMEC); test: Western blot of P-S6RP (mTORC1) in HMEC exposed to APA IgG; type: cell-based; conditions: HMEC pretreated one hour with inhibitor (PP242 0.5 μM), then APA IgG 5 minutes
Description: as §1, §2

[3] = Cyclosporine, tacrolimus and sirolimus serum levels in transplant recipients; type: in vivo; conditions: human, 12 months post-transplantation, mean ± SEM
Description: (§3) The serum creatinine level was measured using a Synchron Cx4 autoanalyzer (Beckman Coulter, Villepinte, France). The glomerular filtration rate (GFR) was evaluated by iohexol clearance at 3- and 12-months post transplant as previously described^25. Cyclosporine and tacrolimus serum levels were determined by radioimmunoas say and sirolimus serum levels by high-performance liquid chromatography^26.

[4] = test system: kidney allograft microcirculation inflammation; test: Microcirculation inflammation in kidney biopsies, Banff classification; type: in vivo, human; conditions: Tx aPL+ Siro+, mean ± SEM
Text: (§4) Biopsy samples and morphological analysis: Human kidney biopsies were either fixed, in alcoholic Bouin's solution (native kidneys) or in alcohol-formalin-acetic acid solution (transplant kidneys). Carotid and left anterior descending arteries from autopsy cases were fixed in formalin. All samples were then embedded in paraffin. Four-μm sections were stained with Periodic Acid Schiff (PAS), Masson's trichrome and hematoxyin and eosin (H&E). Schiff (PAS), Masson's trichrome and hematoxylin and eosin (HE). Kidney biopsies were independently examined and scored by two pathologists at Necker Hospital. Lesions related to APS-nephropathy were quantified according to the usual criteria^12. For each biopsy, the number of vessels displaying fibrous intimal hyperplasia were counted in all the fields of the section, and the data were expressed as the number of damaged vessels for the total number of vascular sections. Lesions related to allograft nephropathy were evaluated according to the Banff classification^27, which takes into account glomerular, tubular and interstitial changes. Autopsy cases were carefully examined by two pathologists at La Pitie Salpetiere Hospital. Vascular lesions, and in particular fibrous intimal hyperplasia, were searched for and characterized in all the tissues.

[5] = test system: kidney transplant recipients with antiphospholipid antibodies (Tx APA+); test: Kidney transplant recipients cohort: vascular lesions, mGFR, allograft survival; type: in vivo, human
Text: Briefly, the inventors studied a first group of transplant recipients with APA+ (Tx APA+, n=37) and a control group of transplants recipients without APA− (Tx APA−, n=59) engrafted during the same period. These patients were followed in the Transplant unit of Necker Hospital. All patients with functioning allograft had surveillances biopsies and measured glomerular filtration rate (mGFR) at 3- and 12-months post transplantation. Patients had similar immunosuppressive regimen consisting in steroids, purine inhibitor and calcineurine inhibitor, except for thirteen and ten patients in the Tx APA− and Tx APA+ group, respectively, that received sirolimus starting at day 0 instead of calcineurin inhibitor.
as §3
as §4, with “Four-μm sections were stained with Periodic Acid Schiff (PAS), Masson's trichrome and hematoxyin and eosin (H&E). Schiff (PAS), Masson's trichrome and hematoxylin and eosin (HE).” left out, “Autopsy cases were carefully examined by two pathologists at La Pitie Salpetiere Hospital. Vascular lesions, and in particular fibrous intimal hyperplasia, were searched for and characterized in all the tissues.” left out

Structure (SMILES): O=c1cc(N2CCOCC2)oc2c(-c3ccccc3)cccc12 [LY294002, 2-(4-Morpholinyl)-8-phenyl-4H-1-benzopyran-4-one]
APA-induced AKT phosphorylation / activation of the AKT pathway [1]: completely prevent

Structure (SMILES): CC(C)n1nc(-c2cc3cc(O)ccc3[nH]2)c2c(N)ncnc21 [PP242]
APA-induced S6RP phosphorylation [2]: completely abolished

concentration at 12 months ([3]; Tx aPL+ Sirolimus− (n = 27), read-out: 12-Mo Tacrolimus trough levels): 10.3 ± 5.9 ng/mL
concentration at 12 months ([3]; Tx aPL− (n = 59), read-out: 12-Mo Tacrolimus trough levels): 10 ± 6 ng/mL
Structure (SMILES): C=CC[C@@H]1/C=C(\C)C[C@H](C)C[C@H](OC)[C@H]2O[C@@](O)(C(=O)C(=O)N3CCCC[C@H]3C(=O)O[C@H](/C(C)=C/[C@@H]3CC[C@@H](O)[C@H](OC)C3)[C@H](C)[C@@H](O)CC1=O)[C@H](C)C[C@@H]2OC [Tacrolimus]

Structure (SMILES): CO[C@H]1C[C@@H]2CC[C@@H](C)[C@@](O)(O2)C(=O)C(=O)N2CCCC[C@H]2C(=O)O[C@H]([C@H](C)C[C@@H]2CC[C@@H](O)[C@H](OC)C2)CC(=O)[C@H](C)/C=C(\C)[C@@H](O)[C@@H](OC)C(=O)[C@H](C)C[C@H](C)/C=C/C=C/C=C/1C [sirolimus, rapamycin]
concentration at 12 months ([3]; Tx aPL+ Sirolimus+ (n = 10), read-out: 12-Mo Sirolimus levels): 18 ± 9 ng/mL
concentration at 12 months ([3]; Tx aPL− (n = 59), read-out: 12-Mo Sirolimus levels): 16 ± 2 ng/mL
C4d (C4 deposits), Banff score ([4]; Month 3 post-Tx): 0.2 ± 0.4
g (Glomerulitis), Banff score ([4]; Month 3 post-Tx): 0.1 ± 0.4
ptc (Peritubular Capillaritis), Banff score ([4]; Month 3 post-Tx): 0.1 ± 0.4
Banff microcirculation inflammation score ([4]; Month 12 post-Tx): 0.1 ± 0.3
C4d (C4 deposits), Banff score ([4]; Month 12 post-Tx): 0.1 ± 0.3
ptc (Peritubular Capillaritis), Banff score ([4]; Month 12 post-Tx): 0.1 ± 0.3
measured glomerular filtration rate (mGFR) ([5]; Tx APA+ Siro+ patients, 12 months post transplantation, 39.6±14.6 in APA+ Siro−): 56 ± 10.8 mL/min
death-censored allograft survival ([5]; Tx aPL+ recipients, 12% without sirolimus): 70%
allograft survival rate ([5]; transplant recipients with antiphospholipid antibodies, 8% without sirolimus, up to 144 months post transplantation): 70%
